Measurements from patent US20060263449A1 (Advanced Gene Technology, Corp., priority 2005, published 2006).

Key:
[1] = tested on: phytohemagglutinin (PHA)-stimulated whole blood cell; settings: cultivated; cited from earlier work
[2] = tested on: 67 molecular targets including G-protein coupled receptors, ion channel-coupled receptors, transporters, ion channels and enzymes; assay: In vitro safety evaluation, whole panel; settings: andrographolide at a concentration of 25 μM in the herbal composition
Experimental: To confirm possible adverse effects, extensive in vitro studies covering a broad range of physical function-related 67 molecular targets including G-protein coupled receptors, ion channel-coupled receptors, transporters, ion channels and enzymes, were conducted. […] Interactions found in the primary assay can be indicative of in vivo side effects or safety.

## C=C1CC[C@@H]2[C@](C)(CO)[C@H](O)CC[C@@]2(C)[C@@H]1C/C=C1/C(=O)OC[C@H]1O [andrographolide]
[1]
  formation of TNFα and β2MG: increase
[2]
  side-effect in the in vitro safety evaluation: no significant side-effect
